Source: patent US6344344B1, “Method for producing uridine-5'-monophosphate by fermentation using mutant strains of coryneform bacteria” (Ajinomoto Co., Inc., priority 1999, dated 2002)
Where two headings read alike, the source gives them in different places.

Experiments:
Assay type in all cases: cell-based
[1] = system: Corynebacterium ammoniagenes LK 40-2 (VKPM B-7811); experiment: Growth of the strain in the presence of pyrimidine analogues
Procedure: Corynebacterium ammoniagenes VKPM B-6307 was treated with 50 μg/ml of NTG for 20 minutes followed by ampicillin-enrichment procedure for obtaining mutants which could not utilize uridine effectively as a sole carbon source (uridine was added into liquid medium A of Table 2 instead of glucose). The obtained mutant cells were plated on a medium B of Table 2 supplemented with guanine (100 μg/ml), arginine (500 μg/ml), casamino acids (200 μg/ml) and 100 μg/ml of 5-fluorouridine.
The inoculated plates were incubated at 30° C. for 3 days.
The extent of resistance to various pyrimidine analogues of this strain as well as that of the parent strain VKPM B-6307 is shown in Table 4.
(§1) Extent of resistance of this strain to various pyrimidine analogues as well as that of the parent strains LK 40-2 and LK 75-15 is shown in Table 11.

[2] = system: Corynebacterium ammoniagenes LK 75-15 (VKPM B-7812); experiment: as above; details: Table 8, analogue 1000 μg/ml
[3] = system: Corynebacterium ammoniagenes ATCC 6872; experiment: as above; details: basal agar medium A
[4] = system: Corynebacterium ammoniagenes LK 75-66 (VKPM B-7813); experiment: as above; details: Table 11, analogue 1000 μg/ml
From the text: as §1

[5] = system: Corynebacterium ammoniagenes LK 75-15 (VKPM B-7812); experiment: as above; details: Table 11, analogue 1000 μg/ml
From the text: as §1

[6] = system: Corynebacterium ammoniagenes VKPM B-6307; details: for Growth of the strains B-6307: basal agar medium A

Question: How did the “Growth of the strain LK 40-2” value ([1]; Table 4, analogue 1000 μg/ml) turn out when O=c1cc[nH]c(=S)[nH]1 [2-Thiouracil] was run?
Answer: +

Question: And the “Growth of the strain LK 40-2” value ([1]; Table 11, analogue 1000 μg/ml)?
Answer: +

Question: And the “Growth of the Strain LK 75-15” value [2]?
Answer: +

Question: And the “Growth of the strains ATCC6872” value ([3]; analogue 500 μg/ml)?
Answer: −

Question: And the “Growth of the strains ATCC6872” value ([3]; analogue 1000 μg/ml)?
Answer: −

Question: And the “Growth of the strains ATCC6872” value ([3]; analogue 3000 μg/ml)?
Answer: −

Question: What about the “Growth of the strains ATCC6872” value ([3]; analogue 5000 μg/ml) of the same compound?
Answer: −

Question: What about the “Growth of the Strain LK 75-66” value [4] of the same compound?
Answer: +

Question: And the “Growth of the Strain LK 75-15” value [5]?
Answer: +

Question: What about the “Growth of the strain B-6307” value ([6]; Table 4, analogue 1000 μg/ml) of the same compound?
Answer: −

Question: What about the “Growth of the strain B-6307” value ([6]; Table 8, analogue 1000 μg/ml) of the same compound?
Answer: −

Question: And the “Growth of the strains B-6307” value ([6]; analogue 500 μg/ml)?
Answer: +

Question: What about the “Growth of the strains B-6307” value ([6]; analogue 1000 μg/ml) of the same compound?
Answer: +

Question: And the “Growth of the strains B-6307” value ([6]; analogue 3000 μg/ml)?
Answer: +

Question: What about the “Growth of the strains B-6307” value ([6]; analogue 5000 μg/ml) of the same compound?
Answer: +

Question: Which “Growth of the strain LK 40-2” value ([1]; Table 4, analogue 1000 μg/ml) does the source give for O=c1cn[nH]c(=O)[nH]1 [6-Azauracil] here?
Answer: +

Question: What about the “Growth of the strain LK 40-2” value ([1]; Table 11, analogue 1000 μg/ml) of the same compound?
Answer: +

Question: And the “Growth of the Strain LK 75-15” value [2]?
Answer: +

Question: What about the “Growth of the strains ATCC6872” value ([3]; analogue 500 μg/ml) of the same compound?
Answer: −

Question: And the “Growth of the strains ATCC6872” value ([3]; analogue 1000 μg/ml)?
Answer: −

Question: What about the “Growth of the strains ATCC6872” value ([3]; analogue 3000 μg/ml) of the same compound?
Answer: −

Question: And the “Growth of the strains ATCC6872” value ([3]; analogue 5000 μg/ml)?
Answer: −

Question: What about the “Growth of the Strain LK 75-66” value [4] of the same compound?
Answer: +

Question: And the “Growth of the Strain LK 75-15” value [5]?
Answer: +

Question: What about the “Growth of the strain B-6307” value ([6]; Table 4, analogue 1000 μg/ml) of the same compound?
Answer: −

Question: And the “Growth of the strain B-6307” value ([6]; Table 8, analogue 1000 μg/ml)?
Answer: −

Question: What about the “Growth of the strains B-6307” value ([6]; analogue 500 μg/ml) of the same compound?
Answer: +

Question: And the “Growth of the strains B-6307” value ([6]; analogue 1000 μg/ml)?
Answer: +

Question: And the “Growth of the strains B-6307” value ([6]; analogue 3000 μg/ml)?
Answer: +

Question: What about the “Growth of the strains B-6307” value ([6]; analogue 5000 μg/ml) of the same compound?
Answer: +
